Legend:
Experiment in all cases: TR-FRET nuclear receptor binding assay
[1] = target: T1, PPARδ(β) (Homo sapiens, UniProt Q03181)
T1 sequence (Q03181 1-441): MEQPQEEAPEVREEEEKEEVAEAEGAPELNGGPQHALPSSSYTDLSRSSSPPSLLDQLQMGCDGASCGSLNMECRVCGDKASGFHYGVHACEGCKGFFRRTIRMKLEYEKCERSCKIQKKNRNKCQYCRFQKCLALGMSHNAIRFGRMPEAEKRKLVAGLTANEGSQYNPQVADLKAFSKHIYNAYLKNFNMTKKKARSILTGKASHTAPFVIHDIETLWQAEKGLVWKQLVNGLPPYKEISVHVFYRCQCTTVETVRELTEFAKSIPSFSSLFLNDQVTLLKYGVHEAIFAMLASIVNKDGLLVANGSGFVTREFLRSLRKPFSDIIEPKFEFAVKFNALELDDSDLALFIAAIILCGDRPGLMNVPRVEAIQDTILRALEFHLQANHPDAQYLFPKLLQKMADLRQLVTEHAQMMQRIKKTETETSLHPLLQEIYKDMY

[2] = target: T2, PPARα (Homo sapiens, UniProt Q07869)
T2 sequence (Q07869 1-468): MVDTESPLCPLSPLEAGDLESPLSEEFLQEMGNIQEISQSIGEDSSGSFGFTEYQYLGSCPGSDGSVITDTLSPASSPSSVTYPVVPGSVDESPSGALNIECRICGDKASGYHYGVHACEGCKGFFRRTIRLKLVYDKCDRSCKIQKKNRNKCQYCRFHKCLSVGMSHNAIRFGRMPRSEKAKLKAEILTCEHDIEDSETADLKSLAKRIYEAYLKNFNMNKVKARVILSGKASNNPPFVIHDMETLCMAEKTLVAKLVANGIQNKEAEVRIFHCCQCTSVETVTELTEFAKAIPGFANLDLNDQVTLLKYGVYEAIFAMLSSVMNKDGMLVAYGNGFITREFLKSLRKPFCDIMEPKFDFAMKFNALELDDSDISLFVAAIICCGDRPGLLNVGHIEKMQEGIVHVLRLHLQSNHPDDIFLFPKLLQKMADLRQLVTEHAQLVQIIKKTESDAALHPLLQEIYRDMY

[3] = target: T3, PPARγ (Homo sapiens, UniProt P37231)
T3 sequence (P37231 1-505): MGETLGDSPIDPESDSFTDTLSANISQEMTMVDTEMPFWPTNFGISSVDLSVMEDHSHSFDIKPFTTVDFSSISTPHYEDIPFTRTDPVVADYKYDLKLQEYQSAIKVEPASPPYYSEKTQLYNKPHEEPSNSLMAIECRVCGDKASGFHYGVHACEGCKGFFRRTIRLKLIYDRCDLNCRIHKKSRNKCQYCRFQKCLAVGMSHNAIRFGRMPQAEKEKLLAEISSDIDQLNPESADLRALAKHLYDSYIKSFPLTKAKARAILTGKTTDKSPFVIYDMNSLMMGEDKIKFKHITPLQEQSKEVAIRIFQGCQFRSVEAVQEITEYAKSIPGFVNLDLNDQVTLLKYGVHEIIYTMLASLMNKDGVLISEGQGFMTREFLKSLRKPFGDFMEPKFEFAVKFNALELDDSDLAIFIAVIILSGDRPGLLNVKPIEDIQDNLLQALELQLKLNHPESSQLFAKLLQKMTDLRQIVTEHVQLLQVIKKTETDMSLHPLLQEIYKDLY

CC1=C(/C=C/C(C)=C\C=C\C(C)=C\C(=O)O)C(C)(C)CCC1 [9-cis RA]
No binding: EC50 nuclear receptor binding PPARδ(β) [1] | EC50 nuclear receptor binding PPARα [2] | EC50 nuclear receptor binding PPARγ [3]

CC1=C(/C=C/C(C)=C/C=C/C(C)=C/C(=O)O)C(C)(C)CCC1 [ATRA, all-trans retinoic acid]
No binding: EC50 nuclear receptor binding PPARδ(β) [1] | EC50 nuclear receptor binding PPARα [2] | EC50 nuclear receptor binding PPARγ [3]

Source: article PMC6872757 (Heliyon, 2019)
